Assay results taken from ChEMBL document CHEMBL1140018, “Synthesis and structure-activity relationship of imidazo(1,2-a)thieno(3,2-e)pyrazines as IKK-beta inhibitors” (Bioorg Med Chem Lett, 2007).
In brackets after ≈: the same amount, converted by molar mass. Activity calls are given as the source filed them. The calls are words filed in the database; no cut-off is given here.

Legend:
[1] = molecular target: T1, Inhibitor of nuclear factor kappa-B kinase subunit beta (Homo sapiens, UniProt O14920)
T1 sequence (O14920 whole entry): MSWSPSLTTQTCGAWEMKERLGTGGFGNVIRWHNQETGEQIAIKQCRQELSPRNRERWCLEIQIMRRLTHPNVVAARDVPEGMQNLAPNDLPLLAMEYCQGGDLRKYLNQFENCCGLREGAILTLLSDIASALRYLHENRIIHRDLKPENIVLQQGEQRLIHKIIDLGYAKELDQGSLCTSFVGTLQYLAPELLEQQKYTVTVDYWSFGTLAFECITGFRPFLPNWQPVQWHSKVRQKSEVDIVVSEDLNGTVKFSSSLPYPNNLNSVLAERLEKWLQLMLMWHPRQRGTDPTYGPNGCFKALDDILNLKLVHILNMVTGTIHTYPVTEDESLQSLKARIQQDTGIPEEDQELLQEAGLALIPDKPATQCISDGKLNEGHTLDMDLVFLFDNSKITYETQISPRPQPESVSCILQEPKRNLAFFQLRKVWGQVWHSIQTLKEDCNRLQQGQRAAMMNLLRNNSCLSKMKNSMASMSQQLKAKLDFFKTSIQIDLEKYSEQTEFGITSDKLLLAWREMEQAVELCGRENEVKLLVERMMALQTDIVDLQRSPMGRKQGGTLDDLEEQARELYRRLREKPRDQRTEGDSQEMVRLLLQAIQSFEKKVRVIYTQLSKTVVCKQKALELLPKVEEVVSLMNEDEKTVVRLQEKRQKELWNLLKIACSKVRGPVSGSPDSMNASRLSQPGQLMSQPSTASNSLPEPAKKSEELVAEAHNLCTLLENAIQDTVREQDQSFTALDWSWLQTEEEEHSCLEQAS

PBMC = experiment: Inhibition of LPS-induced TNFalpha production in PBMC; type: functional, cell-based; details: Homo sapiens
Liver microsomes = experiment: Metabolic stability in human liver microsomes; type: ADME, Microsome
[2] = Aqueous solubility in sodium phosphate buffer at pH 6.5; type: physicochemical
Jurkat = experiment: Inhibition of TNF-alpha-induced response in Jurkat cells; details: Homo sapiens
[3] = molecular target: T2, Inhibitor of nuclear factor kappa-B kinase subunit alpha (Homo sapiens, UniProt O15111)
T2 sequence (O15111 whole entry): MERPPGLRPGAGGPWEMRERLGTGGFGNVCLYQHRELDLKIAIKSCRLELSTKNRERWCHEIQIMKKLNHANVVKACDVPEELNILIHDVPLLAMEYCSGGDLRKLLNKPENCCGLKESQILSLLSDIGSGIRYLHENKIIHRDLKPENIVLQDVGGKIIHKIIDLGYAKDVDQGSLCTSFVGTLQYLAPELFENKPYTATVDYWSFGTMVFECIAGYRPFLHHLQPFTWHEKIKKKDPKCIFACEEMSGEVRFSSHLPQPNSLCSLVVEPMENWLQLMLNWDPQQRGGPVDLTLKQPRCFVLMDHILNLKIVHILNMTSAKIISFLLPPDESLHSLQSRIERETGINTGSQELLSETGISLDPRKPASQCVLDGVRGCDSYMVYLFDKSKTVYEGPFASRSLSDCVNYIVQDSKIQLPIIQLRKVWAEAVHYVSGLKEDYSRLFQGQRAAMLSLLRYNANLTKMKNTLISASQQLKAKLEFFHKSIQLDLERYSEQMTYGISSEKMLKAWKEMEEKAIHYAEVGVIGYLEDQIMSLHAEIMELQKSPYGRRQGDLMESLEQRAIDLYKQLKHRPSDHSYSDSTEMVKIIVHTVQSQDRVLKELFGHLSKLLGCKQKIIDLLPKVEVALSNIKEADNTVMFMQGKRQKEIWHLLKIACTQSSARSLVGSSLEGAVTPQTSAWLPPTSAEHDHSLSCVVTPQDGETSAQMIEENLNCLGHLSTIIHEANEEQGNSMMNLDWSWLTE

Liver = experiment: Metabolic stability in mouse liver microsomes; type: ADME, Microsome
[4] = Cytotoxicity against Jurkat cells by Alamar blue assay; details: human, Jurkat cells
[5] = AUC(1 to 4 hrs) in mouse at 10 mg/kg, po; type: ADME, organism-based; set-up: time upper 4 hr, time lower 1 hr, dose 10 mg/kg, route oral; details: plasma
[6] = Tmax in mouse at 10 mg/kg, po; type: ADME, organism-based; set-up: dose 10 mg/kg, route oral; details: in vivo
[7] = Cmax in mouse at 10 mg/kg, po; type: ADME, organism-based; set-up: dose 10 mg/kg, route oral; details: in vivo
[8] = molecular target: T3, Inhibitor of nuclear factor kappa-B kinase subunit epsilon (Homo sapiens) (UniProt Q14164); experiment: Inhibition of IKKepsilon
T3 sequence (whole entry): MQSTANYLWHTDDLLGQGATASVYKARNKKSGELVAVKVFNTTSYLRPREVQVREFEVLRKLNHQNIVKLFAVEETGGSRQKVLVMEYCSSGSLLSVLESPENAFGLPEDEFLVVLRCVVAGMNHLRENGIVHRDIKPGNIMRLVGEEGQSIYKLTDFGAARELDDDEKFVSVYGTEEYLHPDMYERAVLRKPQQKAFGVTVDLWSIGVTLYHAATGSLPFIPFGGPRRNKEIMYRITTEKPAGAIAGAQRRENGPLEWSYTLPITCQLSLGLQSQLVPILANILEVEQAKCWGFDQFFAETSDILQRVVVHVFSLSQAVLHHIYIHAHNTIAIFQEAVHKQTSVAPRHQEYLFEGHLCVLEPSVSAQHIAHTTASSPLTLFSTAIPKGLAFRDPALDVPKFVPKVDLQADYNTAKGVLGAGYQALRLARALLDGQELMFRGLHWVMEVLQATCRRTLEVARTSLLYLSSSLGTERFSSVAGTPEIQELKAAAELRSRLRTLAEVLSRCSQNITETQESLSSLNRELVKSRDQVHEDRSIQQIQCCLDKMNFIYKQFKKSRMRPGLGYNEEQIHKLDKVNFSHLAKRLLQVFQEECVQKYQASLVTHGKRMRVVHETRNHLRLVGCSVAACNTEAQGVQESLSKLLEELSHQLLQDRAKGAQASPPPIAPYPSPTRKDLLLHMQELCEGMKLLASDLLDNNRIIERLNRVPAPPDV

[9] = molecular target: MAP kinase p38 (Homo sapiens) (UniProt O15264+Q15759+Q16539+P53778); experiment: Inhibition of p38; type: protein assay
Homo sapiens [10] = species: Homo sapiens; experiment: Inhibition of PKA
[11] = molecular target: Tyrosine-protein kinase Lck (Homo sapiens) (UniProt P06239); experiment: Inhibition of LCK
[12] = molecular target: Epidermal growth factor receptor (Homo sapiens) (UniProt P00533); experiment: Inhibition of Her1
Homo sapiens [13] = species: Homo sapiens; experiment: Inhibition of VEGF
[14] = molecular target: Insulin-like growth factor 1 receptor (Homo sapiens) (UniProt P08069); experiment: Inhibition of IGF1R
[15] = molecular target: T4, Tyrosine-protein kinase ITK/TSK (Homo sapiens) (UniProt Q08881); experiment: Inhibition of EMT
T4 sequence (whole entry): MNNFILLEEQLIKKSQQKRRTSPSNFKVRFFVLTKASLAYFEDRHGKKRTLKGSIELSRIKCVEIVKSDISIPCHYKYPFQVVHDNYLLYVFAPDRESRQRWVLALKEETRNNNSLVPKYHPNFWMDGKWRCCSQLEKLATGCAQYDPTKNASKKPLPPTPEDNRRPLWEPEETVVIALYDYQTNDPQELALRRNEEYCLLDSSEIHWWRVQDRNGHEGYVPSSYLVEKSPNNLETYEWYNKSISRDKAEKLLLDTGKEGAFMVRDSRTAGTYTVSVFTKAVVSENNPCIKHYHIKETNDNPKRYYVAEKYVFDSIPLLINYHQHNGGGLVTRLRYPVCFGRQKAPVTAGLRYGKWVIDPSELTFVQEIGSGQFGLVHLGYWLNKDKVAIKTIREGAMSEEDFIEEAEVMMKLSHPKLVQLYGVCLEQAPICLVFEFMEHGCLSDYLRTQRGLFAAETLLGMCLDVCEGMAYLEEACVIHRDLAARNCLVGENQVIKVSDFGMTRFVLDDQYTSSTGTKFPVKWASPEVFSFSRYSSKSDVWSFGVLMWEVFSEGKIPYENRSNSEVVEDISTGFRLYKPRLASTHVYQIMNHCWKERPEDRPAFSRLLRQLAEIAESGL

[16] = molecular target: Receptor tyrosine-protein kinase erbB-2 (Homo sapiens) (UniProt P04626); experiment: Inhibition of Her2
Sequence of Receptor tyrosine-protein kinase erbB-2 (Homo sapiens) (P04626 whole entry): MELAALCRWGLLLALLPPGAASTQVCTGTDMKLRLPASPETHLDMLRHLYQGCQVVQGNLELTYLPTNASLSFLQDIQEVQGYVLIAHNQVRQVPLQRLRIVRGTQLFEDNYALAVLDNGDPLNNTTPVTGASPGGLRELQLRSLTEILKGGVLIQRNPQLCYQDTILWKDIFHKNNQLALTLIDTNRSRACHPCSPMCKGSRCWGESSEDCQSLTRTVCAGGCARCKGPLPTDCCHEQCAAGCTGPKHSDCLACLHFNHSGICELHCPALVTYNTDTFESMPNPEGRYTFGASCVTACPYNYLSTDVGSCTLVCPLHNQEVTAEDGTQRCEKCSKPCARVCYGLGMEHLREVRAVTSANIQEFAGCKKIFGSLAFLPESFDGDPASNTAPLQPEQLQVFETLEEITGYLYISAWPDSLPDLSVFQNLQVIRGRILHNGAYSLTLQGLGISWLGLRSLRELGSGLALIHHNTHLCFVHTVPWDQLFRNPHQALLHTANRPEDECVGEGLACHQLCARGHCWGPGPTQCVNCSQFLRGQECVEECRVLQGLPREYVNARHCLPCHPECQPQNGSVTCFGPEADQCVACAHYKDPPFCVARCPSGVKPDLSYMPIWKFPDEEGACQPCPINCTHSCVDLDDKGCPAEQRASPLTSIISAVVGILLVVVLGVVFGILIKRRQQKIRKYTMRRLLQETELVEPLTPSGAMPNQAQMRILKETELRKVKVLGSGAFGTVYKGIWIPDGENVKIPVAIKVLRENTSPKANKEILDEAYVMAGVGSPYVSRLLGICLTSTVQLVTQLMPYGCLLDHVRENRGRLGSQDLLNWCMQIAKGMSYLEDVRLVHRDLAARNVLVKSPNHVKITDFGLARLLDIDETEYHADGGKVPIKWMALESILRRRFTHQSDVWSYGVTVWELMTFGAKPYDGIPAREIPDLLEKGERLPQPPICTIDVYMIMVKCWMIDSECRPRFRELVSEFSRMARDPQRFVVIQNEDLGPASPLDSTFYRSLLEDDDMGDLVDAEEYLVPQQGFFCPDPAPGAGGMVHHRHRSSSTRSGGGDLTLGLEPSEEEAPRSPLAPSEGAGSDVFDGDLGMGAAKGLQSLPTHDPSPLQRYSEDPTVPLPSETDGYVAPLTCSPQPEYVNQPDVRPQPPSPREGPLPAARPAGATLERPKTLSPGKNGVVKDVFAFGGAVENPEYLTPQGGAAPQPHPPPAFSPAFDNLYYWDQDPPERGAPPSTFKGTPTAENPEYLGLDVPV

Sequence of Epidermal growth factor receptor (Homo sapiens) (P00533 whole entry): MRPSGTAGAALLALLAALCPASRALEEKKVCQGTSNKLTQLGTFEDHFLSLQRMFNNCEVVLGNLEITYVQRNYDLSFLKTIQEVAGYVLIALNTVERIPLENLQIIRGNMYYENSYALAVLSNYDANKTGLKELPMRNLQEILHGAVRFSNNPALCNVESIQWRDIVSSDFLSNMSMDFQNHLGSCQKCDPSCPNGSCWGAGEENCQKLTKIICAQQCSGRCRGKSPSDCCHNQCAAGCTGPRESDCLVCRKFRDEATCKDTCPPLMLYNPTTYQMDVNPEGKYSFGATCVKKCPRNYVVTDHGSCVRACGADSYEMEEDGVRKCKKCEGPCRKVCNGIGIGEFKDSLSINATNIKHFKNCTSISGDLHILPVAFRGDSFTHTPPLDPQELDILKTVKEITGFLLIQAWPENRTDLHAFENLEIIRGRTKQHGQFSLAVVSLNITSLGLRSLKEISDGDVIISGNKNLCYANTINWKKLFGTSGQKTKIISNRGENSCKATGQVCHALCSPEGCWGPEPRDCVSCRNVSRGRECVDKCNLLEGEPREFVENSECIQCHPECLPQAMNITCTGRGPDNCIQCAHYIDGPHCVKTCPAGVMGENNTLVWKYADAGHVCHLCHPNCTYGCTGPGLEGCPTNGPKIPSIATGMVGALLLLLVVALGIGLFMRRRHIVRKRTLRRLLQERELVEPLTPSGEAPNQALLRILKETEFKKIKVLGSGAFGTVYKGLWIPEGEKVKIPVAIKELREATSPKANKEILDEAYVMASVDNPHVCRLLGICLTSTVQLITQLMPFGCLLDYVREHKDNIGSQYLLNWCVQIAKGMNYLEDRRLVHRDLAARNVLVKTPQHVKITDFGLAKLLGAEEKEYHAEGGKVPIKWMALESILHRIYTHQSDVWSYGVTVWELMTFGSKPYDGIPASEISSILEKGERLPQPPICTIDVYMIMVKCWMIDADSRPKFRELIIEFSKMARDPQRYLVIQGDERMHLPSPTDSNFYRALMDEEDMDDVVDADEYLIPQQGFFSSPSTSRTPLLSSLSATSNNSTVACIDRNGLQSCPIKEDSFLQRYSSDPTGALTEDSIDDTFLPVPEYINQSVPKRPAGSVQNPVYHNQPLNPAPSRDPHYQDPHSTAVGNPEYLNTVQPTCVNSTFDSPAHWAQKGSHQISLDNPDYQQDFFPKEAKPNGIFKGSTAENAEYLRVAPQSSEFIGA
Sequence of Tyrosine-protein kinase Lck (Homo sapiens) (P06239 2-509 limits assumed): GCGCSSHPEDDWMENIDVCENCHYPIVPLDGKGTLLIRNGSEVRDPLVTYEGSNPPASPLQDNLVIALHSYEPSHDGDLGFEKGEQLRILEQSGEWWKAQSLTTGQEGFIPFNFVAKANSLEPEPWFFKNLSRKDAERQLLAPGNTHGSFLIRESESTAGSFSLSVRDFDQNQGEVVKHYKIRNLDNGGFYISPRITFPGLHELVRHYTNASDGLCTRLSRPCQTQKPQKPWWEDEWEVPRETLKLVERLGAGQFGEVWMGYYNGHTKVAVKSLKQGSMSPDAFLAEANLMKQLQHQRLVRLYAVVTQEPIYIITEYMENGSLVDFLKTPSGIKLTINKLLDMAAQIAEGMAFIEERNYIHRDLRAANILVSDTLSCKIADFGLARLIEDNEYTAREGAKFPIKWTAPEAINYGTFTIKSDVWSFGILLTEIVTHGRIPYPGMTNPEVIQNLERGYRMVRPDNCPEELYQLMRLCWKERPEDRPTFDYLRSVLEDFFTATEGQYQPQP
Sequence of Insulin-like growth factor 1 receptor (Homo sapiens) (P08069 31-736 limits assumed): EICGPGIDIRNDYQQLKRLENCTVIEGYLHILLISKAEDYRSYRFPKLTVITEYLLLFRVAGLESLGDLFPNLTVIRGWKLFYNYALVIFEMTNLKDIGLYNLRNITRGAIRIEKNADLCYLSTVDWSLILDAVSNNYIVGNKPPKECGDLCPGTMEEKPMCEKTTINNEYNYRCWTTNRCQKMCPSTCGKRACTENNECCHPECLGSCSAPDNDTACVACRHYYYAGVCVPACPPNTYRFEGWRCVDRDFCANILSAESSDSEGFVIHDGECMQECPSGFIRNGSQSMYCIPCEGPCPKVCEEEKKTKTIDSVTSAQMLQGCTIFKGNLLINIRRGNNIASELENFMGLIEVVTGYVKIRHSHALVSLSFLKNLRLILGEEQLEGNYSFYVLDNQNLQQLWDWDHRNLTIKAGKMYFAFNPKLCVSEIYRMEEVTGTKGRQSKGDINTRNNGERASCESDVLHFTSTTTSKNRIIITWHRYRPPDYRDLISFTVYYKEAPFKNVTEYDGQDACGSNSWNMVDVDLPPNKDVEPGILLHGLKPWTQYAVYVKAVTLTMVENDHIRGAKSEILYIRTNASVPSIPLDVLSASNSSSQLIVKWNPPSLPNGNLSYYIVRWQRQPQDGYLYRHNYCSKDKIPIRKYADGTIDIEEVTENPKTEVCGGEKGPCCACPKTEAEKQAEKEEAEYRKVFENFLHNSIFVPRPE
Sequence of Insulin-like growth factor 1 receptor (Homo sapiens) (P08069 741-1367 limits assumed): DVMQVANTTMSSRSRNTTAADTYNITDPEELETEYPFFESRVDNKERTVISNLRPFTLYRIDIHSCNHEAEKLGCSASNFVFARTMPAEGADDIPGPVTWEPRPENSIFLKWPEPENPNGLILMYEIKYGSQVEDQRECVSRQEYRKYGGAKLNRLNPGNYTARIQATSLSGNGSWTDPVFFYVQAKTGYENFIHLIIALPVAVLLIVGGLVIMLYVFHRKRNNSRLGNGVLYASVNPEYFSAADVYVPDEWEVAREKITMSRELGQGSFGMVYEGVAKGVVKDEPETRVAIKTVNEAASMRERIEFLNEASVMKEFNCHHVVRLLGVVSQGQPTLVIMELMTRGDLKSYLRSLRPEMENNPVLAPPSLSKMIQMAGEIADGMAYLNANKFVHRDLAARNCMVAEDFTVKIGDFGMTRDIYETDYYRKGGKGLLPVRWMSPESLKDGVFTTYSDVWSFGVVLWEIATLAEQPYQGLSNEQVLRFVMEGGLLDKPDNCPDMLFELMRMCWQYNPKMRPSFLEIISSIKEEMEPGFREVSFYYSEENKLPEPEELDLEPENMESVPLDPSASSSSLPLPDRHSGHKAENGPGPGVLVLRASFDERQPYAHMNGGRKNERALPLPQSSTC

| SMILES | IC50 [1] [nM] | EC50 (PBMC) [nM] | Stability (Liver microsomes) [nmol/mg/min] | solubility [2] [µg/mL] | EC50 (Jurkat) [nM] | IC50 [3] [nM] | Stability (Liver) [nmol/mg/min] | CC50 [4] [nM] | AUC(0-t) [5] [µM·h] | Tmax [6] [min] | Cmax [7] [nM] | Activity [8] | Activity [9] | Activity (Homo sapiens [10]) | Activity [11] | Activity [12] | Activity (Homo sapiens [13]) | Activity [14] | Activity [15] | Activity [16] |
| --- | --- | --- | --- | --- | --- | --- | --- | --- | --- | --- | --- | --- | --- | --- | --- | --- | --- | --- | --- | --- |
| CCNC(=O)C(N)Cc1cccc(-c2cc3nc(NC)c4ncc(C)n4c3s2)c1 (racemic) | 590 | 140 | 0.069 | 44 (≈ 108 µM) | 1050 | 1010 | 0.145 | 71000 | 9.89 | 30 | 8600 |  |  |  |  |  |  |  |  |  |
| CNc1nc2cc(-c3cccc(CN)c3)sc2n2c(C)cnc12 | 8.5 |  |  |  | 5880 | 220 |  | 19000 |  |  |  | inactive |  |  |  |  |  |  |  |  |
| CNc1nc2cc(-c3cccc(CCNC(N)=O)c3)sc2n2c(C)cnc12 | 18 |  |  |  | 550 | 130 |  | > 100000 |  |  |  | inactive |  |  |  |  |  |  |  |  |
| CNc1nc2cc(-c3cccc(CNS(N)(=O)=O)c3)sc2n2c(C)cnc12 | 3 | 95 | 0.035 |  | 270 | 170 | 0.231 | > 100000 |  | 60 |  |  |  |  |  |  |  |  |  |  |
| Cc1cnc2c(NCCN3CCCCC3)nc3cc(-c4ccccc4)sc3n12 | 40 |  |  |  | 13400 | 3130 |  | 15000 |  |  |  | inactive | inactive | inactive | inactive | inactive | inactive | inactive | inactive | inactive |
| CNc1nc2cc(-c3cccc(CC(N)=O)c3)sc2n2c(C)cnc12 | 8 | 65 | 0.062 |  | 360 | 680 | 0.13 | > 100000 | 0.63 | 30 | 290 |  |  |  |  |  |  |  |  |  |
| CNC(=O)C(N)Cc1cccc(-c2cc3nc(NC)c4ncc(C)n4c3s2)c1 (racemic) | 36 |  |  | 42 (≈ 106 µM) | 470 | 330 |  | 68000 |  |  |  |  |  |  |  |  |  |  |  |  |
| CNc1nc2cc(-c3cccc(CNC(N)=O)c3)sc2n2c(C)cnc12 | 43 | 68 | 0.066 |  | 340 | 260 | 0.221 | > 100000 | 0.38 | 30 | 150 |  |  |  |  |  |  |  |  |  |
| Cc1cnc2c(NCCN)nc3cc(-c4ccccc4)sc3n12 | 22 |  |  |  | > 100000 | 910 |  | 77000 |  |  |  | inactive | inactive | inactive | inactive | inactive | inactive | inactive | inactive | inactive |
| CNc1nc2cc(-c3cccc(CCC(N)=O)c3)sc2n2c(C)cnc12 | 19 |  |  |  | 810 | 1210 |  | > 100000 |  |  |  |  |  |  |  |  |  |  |  |  |
| Cc1cnc2c(NCCN)nc3cc(-c4ccc(CO)cc4)sc3n12 | 23 |  |  |  | 40900 | 2330 |  | 14000 |  |  |  |  |  |  |  |  |  |  |  |  |
| COc1ccccc1-c1cc2nc(NCCN)c3ncc(C)n3c2s1 | 280 |  |  |  | > 100000 | 13000 |  | 3500 |  |  |  |  |  |  |  |  |  |  |  |  |
